What was measured:
patients with GAD [1] = details: cited from earlier work
patients with GAD [2] = details: cited from earlier work; remark: listed apart in the source
[3] = tested on: patients with treatment resistant major depression; experiment: Example 24: augmentation of antidepressant therapy, quetiapine versus lithium, 56 days
Description: The study compared tolerability and efficacy. […] Lithium was initiated at 600 mg/day, and maintained over Week 1 and 2 and subsequently adjusted to attain a level of 0.8-1.2 mmol/L. Lithium levels were taken weekly.
A total of 20 patients were randomized to 1 of the 2 treatment groups. The study population included men and women aged 18-65 years, with a diagnosis of major depression according to DSM-IV, Hamilton Depression Rating Scale (HAM-D)≧20 and a Clinical Global […] (CGI) score ≧4.
Patients were evaluated at baseline and then on days 7, 14, 28, 42, and 56 using the HAM-D, Montgomery-Asberg […] (MADRS), SAS, and Widlocher Psychomotor Retardation Scale.

[4] = tested on: patients resistant to anti-depressant treatment; details: within 4 weeks; adjunct to anti-depressant therapy; cited from earlier work
[5] = add-on to antidepressant, mean doses quetiapine 430 mg/day, lithium 825 mg/day

Description for patients with PTSD: To be included, patients had to be diagnosed with PTSD according to DSM-IV criteria. Patients with comorbid psychotic disorders or substance abuse problems were excluded. […] The dose was split between morning and night time so that the majority of the dose was taken at bedtime.
The primary efficacy endpoints were: (1) change from baseline to endpoint in the Clinician Administered PTSD Scale (CAPS) total score; and (2) the percentage of patients meeting PTSD diagnostic criteria at endpoint. […] Adverse events (AEs) and patient adherence were also evaluated. Forty-seven patients were included in each treatment group.

In the case of `COc1ccc(C(CN(C)C)C2(O)CCCCC2)cc1` (stereo not shown) [Venlafaxine XR, venlafaxine], the “change in HAM-A total score compared to placebo” value (patients with GAD [1]; at 6 months, another long-term study) is listed as 5.4 and the “difference in HAM-A total score” value (patients with GAD [1]; long-term study, s.d.=7.5) is listed as 4.18 points.

With `CN[C@H]1CC[C@@H](c2ccc(Cl)c(Cl)c2)c2ccccc21` [sertraline+placebo, sertraline] the “mean improvement (decrease) from baseline to endpoint in CAPS total score” value (patients with PTSD; 8 weeks) was “about 53”, the “patients still meeting PTSD diagnostic criteria” value (patients with PTSD; after 8 weeks of treatment, disparity not seen with LOCF analysis) was 37% and the CGI-I scores (patients with PTSD; in vivo) was “significant increase”. The “mean HAM-D scores and CGI-S scores, baseline to endpoint” value (patients with PTSD; in vivo) was “decreased significantly” and the “patients that experienced at least one AE” value (patients with PTSD; of 59 in the study) was 31 patients.

In the case of `Fc1ccc([C@@H]2CCNC[C@H]2COc2ccc3c(c2)OCO3)cc1` [paroxetine], the percent remission (patients with GAD [2]; placebo 30%) is listed as 70% and the relapse (patients with GAD [2]; relapse = increase in CGI-S score of at least 2 points to >=4, or withdrawal from lack of efficacy, placebo 39.9%) is listed as 10.9%.

With `[Li]` [lithium] the “Widlocher Psychomotor Retardation Scale mean baseline score” value ([3]; add-on to antidepressant) was “about 22”, the “Widlocher Psychomotor Retardation Scale mean score after treatment” value ([3]; add-on to antidepressant) was “about 15” and the “mean MADRS score after Day 7 up to Day 56 (end value)” value ([3]; add-on to antidepressant) was “about 22”. The “mean HAM-D score at Day 56” value [3, 5] was “about 15”, the “mean HAM-D score, start value of 'From Day 7 to 56'” value [3, 5] was “about 28” and the “patients in remission (HAM-D)” value ([3]; after 56 days) was 40%. For the same compound, the “patients who responded (MADRS)” value ([3]; after 56 days) was 50%, the “patients who responded to treatment (HAM-D)” value ([3]; after 56 days) was 50% and the “patients who achieved remission (MADRS)” value ([3]; at 56 days) was 30%. The patients who respond [4] was about 50%.
